Laboratory results published in patent US20090270459A1, “Flea control agent containing N-Substituted indole derivative” (priority 2001, published 2009).

Tests used:
adult cat fleas = experiment: Effect on cat flea (1): glass tube residue contact test, knock-down and mortality; format: in vivo, cat flea (Ctenocephalides felis); set-up: After 3 hours (KD) knocking-down rate: unit not given here
Protocol: Each compound was dissolved in acetone to a predetermined concentration and 0.1 ml of the resulting solution was dropped into the bottom of a glass tube with a diameter of 2.8 cm and a height of 12 cm and air-dried. After the air-drying, 10 adult cat fleas were placed in the glass tube and the glass tube was closed with nylon mesh and allowed to stand under conditions of a room temperature of 26° C. and a humidity of 80%. The knocked-down (KD) fleas after 3 hours and the dead and alive after 24 hours and 48 hours were counted, and the knocking-down rate and the mortality were calculated. Fipronil was used as a positive control. In a control experiment, no treatment with an agent was carried out.

std:ddy strain male mice = experiment: Toxicity to mouse, administration into the stomach; format: in vivo
Protocol: The compound listed in Table 1 or Fipronil was dissolved in olive oil to a predetermined concentration, and the resulting solution was directly administered into the stomachs of std:ddy strain male mice by the use of a probe. The dose was 30 mg/kg or 100 mg/kg. Whether the mice were alive or dead was observed 3 hours, 1 day, 7 days and 14 days after the administration.

[1] = test system: cat fleas parasitic on a cat; experiment: Effect on cat flea (2): spot-on of 10% liquid drops on flea-infested cat, cumulative fall rate; format: in vivo, cat flea (Ctenocephalides felis) on cat; conditions: for Cumulative fall rate (%) After 2 hours: cat with 30 cat fleas
Protocol: Fleas that had fallen from the cat body were counted at intervals of 2 hours until 8 hours after the dropping of the solution, and the cumulative fall rate was calculated. In addition, fleas that had fallen in 24 hours were counted and the cumulative fall rate after 1 day was calculated. Two days after the dropping, the living fleas on the cat body were counted by the use of a flea-removing comb.

cat = experiment: Toxicity to cat, spot-on dropping of liquid drops; conditions: for Clinical symptom: 0.5 ml spot-on, cat, listed as No. 17
Source text: After the dropping, the clinical symptom of the cat was observed.

[2] = test system: adult cat fleas made parasitic on the cat body; experiment: Effect on cat flea (3): residual effect after spot-on of 10% liquid drops on cat, re-infestation; format: in vivo, cat flea (Ctenocephalides felis) on cat; conditions: for Number of living fleas on the second day after inoculation: 30 fleas inoculated
Source text: After the dropping, 30 adult cat fleas were made parasitic on the cat body after a predetermined number of weeks. On the second day after this inoculation with the parasites, the living fleas on the cat body were counted by the use of a flea-removing comb.

[3] = 1 mg/tube, 10 adult cat fleas, 26° C., humidity 80%
[4] = 30 mg/kg into the stomach, in olive oil, male mice

| SMILES | After 3 hours (KD) knocking-down rate (adult cat fleas; 0.001 mg/tube) | After 1 day (mortality) (adult cat fleas; 0.001 mg/tube) | After 2 days (mortality) (adult cat fleas; 0.001 mg/tube) | After 3 hours (KD) knocking-down rate (adult cat fleas; 0.01 mg/tube) | After 1 day (mortality) (adult cat fleas; 0.01 mg/tube) | After 2 days (mortality) (adult cat fleas; 0.01 mg/tube) | After 3 hours (KD) knocking-down rate (adult cat fleas; 0.1 mg/tube) | After 1 day (mortality) (adult cat fleas; 0.1 mg/tube) | After 2 days (mortality) (adult cat fleas; 0.1 mg/tube) | After 1 day (mortality) (adult cat fleas; 1 mg/tube) | After 2 days (mortality) (adult cat fleas; 1 mg/tube) | After 3 hours (KD) knocking-down rate (adult cat fleas; [3]) | Cumulative mortality After 1 day (std:ddy strain male mice; 30 mg/kg) | Cumulative mortality After 7 days (std:ddy strain male mice; 30 mg/kg) | Cumulative mortality After 14 days (std:ddy strain male mice; 30 mg/kg) | Cumulative mortality After 3 hours (std:ddy strain male mice; [4]) | Cumulative mortality After 3 hours (std:ddy strain male mice; 100 mg/kg) | Cumulative mortality After 1 day (std:ddy strain male mice; 100 mg/kg) | Cumulative mortality After 7 days (std:ddy strain male mice; 100 mg/kg) | Cumulative mortality After 14 days (std:ddy strain male mice; 100 mg/kg) | other results |
| --- | --- | --- | --- | --- | --- | --- | --- | --- | --- | --- | --- | --- | --- | --- | --- | --- | --- | --- | --- | --- | --- |
| FC(Cl)(Cl)Sc1cn(-c2ncc(C(F)(F)F)cc2Cl)c2ccccc12 [Compound 1, 1-(3-chloro-5-trifluoromethylpyridin-2-yl)-3-(dichlorofluoromethyl-thio)indole] | 0 | 10% | 40% | 0 | 70% | 100% | 0 | 100% | 100% | 100% | 100% | 80 |  |  |  |  |  |  |  |  |  |
| Fc1ccc2c(c1)c(SC(F)(Cl)Cl)cn2-c1ncc(C(F)(F)F)cc1Cl [Compound 2, 1-(3-chloro-5-trifluoromethylpyridin-2-yl)-3-(dichlorofluoromethylthio)-5-fluoroindole] | 0 | 0% | 0% | 0 | 10% | 50% | 0 | 100% | 100% | 100% | 100% | 0 |  |  |  |  |  |  |  |  |  |
| FC(Cl)(Cl)Sc1cn(-c2ncc(C(F)(F)F)cc2Cl)c2ccc(Cl)cc12 [Compound 3] | 0 | 20% | 20% | 0 | 10% | 20% | 0 | 40% | 70% | 50% | 90% | 0 |  |  |  |  |  |  |  |  |  |
| Cc1c(SC(F)(Cl)Cl)c2ccccc2n1-c1ncc(C(F)(F)F)cc1Cl [Compound 14, 1-(3-chloro-5-trifluoromethylpyridin-2-yl)-3-(dichlorofluoromethylthio)-2-methylindole] | 0 | 20% | 30% | 0 | 50% | 100% | 0 | 100% | 100% | 100% | 100% | 0 | 0/5 | 0/5 | 0/5 | 0/5 | 0/5 | 0/5 | 0/5 | 0/5 |  |
| FC(Cl)(Cl)Sc1cn(-c2c(Cl)cc(C(F)(F)F)cc2Cl)c2ccccc12 [Compound 17, 1-(2,6-dichloro-4-trifluoromethylphenyl)-3-(dichlorofluoromethylthio)indole] | 0 | 10% | 40% | 0 | 70% | 100% | 0 | 100% | 100% | 100% | 100% | 50 | 0/5 | 0/5 | 0/5 | 0/5 | 0/5 | 0/5 | 0/5 | 0/5 | Fate of the fleas that had fallen from the cat body ([1]; 0.5 ml of 10% solution spot-on): died within several hours; Cumulative fall rate (%) After 4 hours ([1]; 0.5 ml of 10% solution spot-on): 15%; Cumulative fall rate (%) After 6 hours ([1]; 0.5 ml of 10% solution spot-on): 37%; Cumulative fall rate (%) After 8 hours ([1]; 0.5 ml of 10% solution spot-on): 47%; Cumulative fall rate (%) After 24 hours ([1]; 0.5 ml of 10% solution spot-on): 100%; Cumulative fall rate (%) After 2 hours ([1]; 0.5 ml of 10% solution spot-on): 0%; Toxicity to cat (cat; 10, 20 or 30% liquid drops spot-on): only low toxicity; Clinical symptom (cat; dropping concentration 10%): no abnormal sign; Clinical symptom (cat; dropping concentration 20%): no abnormal sign; Clinical symptom (cat; dropping concentration 30%): no abnormal sign; Duration of the aftereffect ([2]; 0.5 ml of 10% solution spot-on, cat): about 6 weeks; Number of living fleas on the second day after inoculation ([2]; 1 week after administration, 0.5 ml of 10% solution): 0; Number of living fleas on the second day after inoculation ([2]; 2 weeks after administration): 0; Number of living fleas on the second day after inoculation ([2]; 4 weeks after administration): 0; Number of living fleas on the second day after inoculation ([2]; 6 weeks after administration): 6; Number of living fleas on the second day after inoculation ([2]; 6 weeks after administration, listed as No. 17): six; Number of living fleas on the second day after inoculation ([2]; 8 weeks after administration): 13; Number of living fleas on the second day after inoculation ([2]; 8 weeks after administration, listed as No. 17): thirteen; Killing of the fleas until 4 weeks after the dropping ([2]; until 4 weeks after the dropping): completely killed the fleas |
| FC(Cl)(Cl)Sc1cn(-c2c(Cl)cc(C(F)(F)F)cc2Cl)c2ccc(Cl)cc12 [Compound 19] |  |  |  | 0 | 30% | 90% | 0 | 60% | 100% | 100% | 100% | 0 |  |  |  |  |  |  |  |  |  |
| FC(F)(F)Sc1cn(-c2c(Cl)cc(C(F)(F)F)cc2Cl)c2ccccc12 [Compound 25, 1-(2,6-dichloro-4-trifluoromethylphenyl)-3-(trifluoromethylthio)indole] | 0 | 0% | 30% | 0 | 70% | 100% | 10 | 100% | 100% | 90% | 100% | 100 | 0/5 | 0/5 | 0/5 | 0/5 | 0/5 | 0/5 | 0/5 | 0/5 |  |
| O=S(=O)(c1cn(-c2c(Cl)cc(C(F)(F)F)cc2Cl)c2ccccc12)C(F)(Cl)Cl [Compound 32] | 0 | 0% | 0% | 0 | 0% | 20% | 0 | 30% | 100% | 100% | 100% | 0 |  |  |  |  |  |  |  |  |  |
| N#Cc1nn(-c2c(Cl)cc(C(F)(F)F)cc2Cl)c(N)c1[S+]([O-])C(F)(F)F (stereo not drawn) [Fipronil, 5-amino-1-(2,6-dichloro-4-(trifluoromethyl)phenyl)-4-((trifluoromethyl)sulfinyl)-1H-pyrazole-3-carbonitrile, reference compound] | 0 | 20% | 20% | 0 | 20% | 90% | 0 | 100% | 100% | 100% | 100% | 0 | 1/5 | 1/5 | 1/5 | 0/5 | 1/5 | 5/5 | 5/5 | 5/5 | Cumulative fall rate (%) After 4 hours ([1]; 0.5 ml of 10% solution spot-on): 3%; Cumulative fall rate (%) After 6 hours ([1]; 0.5 ml of 10% solution spot-on): 20%; Cumulative fall rate (%) After 8 hours ([1]; 0.5 ml of 10% solution spot-on): 27%; Cumulative fall rate (%) After 24 hours ([1]; 0.5 ml of 10% solution spot-on): 90%; Dead fleas found on the body of the cat ([1]; 24 hours after the dropping, 0.5 ml of 10% solution): three; Cumulative fall rate (%) After 2 hours ([1]; 0.5 ml of 10% solution spot-on): 0% |
